This note sets out measurements from ChEMBL document CHEMBL2385069, “Thiourea derivatives incorporating a hippuric acid moiety: synthesis and evaluation of antibacterial and antifungal activities” (2013).

What all share (assay type): functional
For experiment [1], the system named is Candida albicans. Nature of the experiment: Antifungal activity against Candida albicans NRRLY-477 assessed as diameter of inhibition zone at 1 mg/ml after 24 hrs by agar well diffusion method. Conditions: NRRLY-477, 24 h, read-out: DIZ.
For experiment [2], the system named is Bacillus subtilis. Nature of the experiment: Antibacterial activity against Bacillus subtilis ATCC 6633 after 24 hrs by two fold serial dilution technique. Conditions: ATCC 6633, 24 h.
In experiment [3] the test system is Saccharomyces cerevisiae. Nature of the experiment: Antifungal activity against Saccharomyces cerevisiae assessed as diameter of inhibition zone at 1 mg/ml after 24 hrs by agar well diffusion method. Conditions: read-out: DIZ. In general terms: In agar diffusion tests the substance spreads into inoculated agar from a disc or well.
Experiment [4] has as its system Klebsiella pneumoniae. Nature of the experiment: Antibacterial activity against Klebsiella pneumoniae ATCC 13883 after 24 hrs by two fold serial dilution technique. The following applies: ATCC 13883, 24 h.
Experiment [5] has as its system Priestia megaterium. Nature of the experiment: Antibacterial activity against Bacillus megaterium ATCC 9885 after 24 hrs by two fold serial dilution technique. The following applies: ATCC 9885, 24 h.
Experiment [6] concerns Bacillus subtilis. Nature of the experiment: Antibacterial activity against Bacillus subtilis ATCC 6633 assessed as diameter of inhibition zone at 1 mg/ml after 24 hrs by agar well diffusion method. Conditions: ATCC 6633, 24 h, read-out: DIZ.
Experiment [7] has as its system Pseudomonas aeruginosa. Nature of the experiment: Antibacterial activity against Pseudomonas aeruginosa ATCC 27953 assessed as diameter of inhibition zone at 1 mg/ml after 24 hrs by agar well diffusion method. Conditions: ATCC 27953, 24 h, read-out: DIZ.
In experiment [8] the test system is Klebsiella pneumoniae. Nature of the experiment: Antibacterial activity against Klebsiella pneumoniae ATCC 13883 assessed as diameter of inhibition zone at 1 mg/ml after 24 hrs by agar well diffusion method. Conditions: ATCC 13883, 24 h, read-out: DIZ.
For experiment [9], the system named is Pseudomonas aeruginosa. Nature of the experiment: Antibacterial activity against Pseudomonas aeruginosa ATCC 27953 after 24 hrs by two fold serial dilution technique. The following applies: ATCC 27953, 24 h.
Experiment [10] deals with Staphylococcus aureus. Nature of the experiment: Antibacterial activity against Staphylococcus aureus ATCC 29213 after 24 hrs by two fold serial dilution technique. The following applies: ATCC 29213, 24 h.
The subject of experiment [11] is Priestia megaterium. Nature of the experiment: Antibacterial activity against Bacillus megaterium ATCC 9885 assessed as diameter of inhibition zone at 1 mg/ml after 24 hrs by agar well diffusion method. Conditions: ATCC 9885, 24 h, read-out: DIZ.
In experiment [12] the test system is Micrococcus luteus. Nature of the experiment: Antibacterial activity against Sarcina lutea assessed as diameter of inhibition zone at 1 mg/ml after 24 hrs by agar well diffusion method. Conditions: read-out: DIZ.
Experiment [13] has as its system Proteus vulgaris. Nature of the experiment: Antibacterial activity against Proteus vulgaris assessed as diameter of inhibition zone at 1 mg/ml after 24 hrs by agar well diffusion method. Conditions: read-out: DIZ.
Experiment [14] relates to Escherichia coli. Nature of the experiment: Antibacterial activity against Escherichia coli ATCC 25922 after 24 hrs by two fold serial dilution technique. The following applies: ATCC 25922, 24 h.
The subject of experiment [15] is Escherichia coli. Nature of the experiment: Antibacterial activity against Escherichia coli ATCC 25922 assessed as diameter of inhibition zone at 1 mg/ml after 24 hrs by agar well diffusion method. The following applies: ATCC 25922, 24 h, read-out: DIZ.
For experiment [16], the system named is Candida albicans. Nature of the experiment: Antifungal activity against Candida albicans NRRLY-477 after 24 hrs by two fold serial dilution technique. Conditions: NRRLY-477, 24 h.
Experiment [17] relates to Proteus vulgaris. Nature of the experiment: Antibacterial activity against Proteus vulgaris after 24 hrs by two fold serial dilution technique.
For experiment [18], the system named is Micrococcus luteus. Nature of the experiment: Antibacterial activity against Sarcina lutea after 24 hrs by two fold serial dilution technique.
Experiment [19] relates to Staphylococcus aureus. Nature of the experiment: Antibacterial activity against Staphylococcus aureus ATCC 29213 assessed as diameter of inhibition zone at 1 mg/ml after 24 hrs by agar well diffusion method. The following applies: ATCC 29213, 24 h, read-out: DIZ.
Experiment [20] has as its system Saccharomyces cerevisiae. Nature of the experiment: Antifungal activity against Saccharomyces cerevisiae after 24 hrs by two fold serial dilution technique.
Experiment [21] has as its system Bacillus subtilis. Nature of the experiment: Ratio of Ciprofloxacin MIC to compound MIC for Bacillus subtilis ATCC 6633.
Experiment [22] has as its system Candida albicans. Nature of the experiment: Ratio of ketoconazole MIC to compound MIC for Candida albicans NRRLY-477.

Values after ≈ are worked out from the molar mass of the structure shown.

One may read the MIC as the lowest concentration that inhibits growth of the organism. Consider `O=C(O)CNC(=O)c1ccc(NC(=S)Nc2cccc(F)c2)cc1`, for which the zone of inhibition at 1000 µg/mL in experiment [1] was 22 mm; in experiment [3], 17 mm; in experiment [6], 18 mm; in experiment [7], 21 mm; in [8], 23 mm; in [11], 27 mm. The zone of inhibition at 1000 µg/mL is 20 mm in experiment [12], 25 mm in experiment [13], 20 mm in experiment [15] and 20 mm in [19]. In addition, the MIC in experiment [2] was found to be 12.5 µg/mL (≈ 36 µM); in [4], 12.5 µg/mL (≈ 36 µM); in [5] it was 12.5 µg/mL (≈ 36 µM); in experiment [9], 12.5 µg/mL (≈ 36 µM); in experiment [10] it was 50 µg/mL (≈ 144 µM); in [14], 12.5 µg/mL (≈ 36 µM). For the same compound, the MIC is 12.5 µg/mL (≈ 36 µM) in experiment [16], 12.5 µg/mL (≈ 36 µM) in [17], 12.5 µg/mL (≈ 36 µM) in experiment [18] and 25 µg/mL (≈ 72 µM) in experiment [20].

On to `O=C(O)CNC(=O)c1ccc(NC(=S)Nc2ccc(C(=O)NCC(=O)O)cc2)cc1`, for which the zone of inhibition at 1000 µg/mL in experiment [1] worked out at 19 mm; in experiment [3], 18 mm; in experiment [6], 18 mm; in experiment [7], 22 mm; in experiment [8], 23 mm; in experiment [11] it was 17 mm. The zone of inhibition at 1000 µg/mL in [12] is 15 mm; in [13], 21 mm; in experiment [15], 22 mm; in [19] it was 22 mm. For the same compound, the MIC in experiment [2] amounted to 50 µg/mL (≈ 116 µM); in experiment [4] it was 12.5 µg/mL (≈ 29 µM); in [5], 12.5 µg/mL (≈ 29 µM); in experiment [9], 12.5 µg/mL (≈ 29 µM); in [10], 50 µg/mL (≈ 116 µM); in experiment [14], 12.5 µg/mL (≈ 29 µM). Further, the MIC in [16] stood at 12.5 µg/mL (≈ 29 µM); in experiment [17] it was 25 µg/mL (≈ 58.1 µM); in experiment [18], 25 µg/mL (≈ 58.1 µM); in experiment [20], 50 µg/mL (≈ 116 µM).

For the compound `Nc1n[nH]c(NC(=S)Nc2ccc(C(=O)NCC(=O)O)cc2)c1/N=N/c1ccc(Cl)cc1`, the zone of inhibition at 1000 µg/mL came to 30 mm in experiment [1]; 25 mm in experiment [3]; 32 mm in experiment [6]; 28 mm in [7]; 22 mm in [8]; 27 mm in [11]. Further, the zone of inhibition at 1000 µg/mL came out at 30 mm in experiment [12], 28 mm in experiment [13], 28 mm in [15] and 28 mm in experiment [19]. For the same compound, the Ratio in experiment [21] and in experiment [22] was 2 throughout. In addition, the MIC amounted to 3.12 µg/mL (≈ 6.6 µM) in experiment [2]; 12.5 µg/mL (≈ 26.4 µM) in [4]; 6.25 µg/mL (≈ 13.2 µM) in experiment [5]; 12.5 µg/mL (≈ 26.4 µM) in [9]; 6.25 µg/mL (≈ 13.2 µM) in [10]; 6.25 µg/mL (≈ 13.2 µM) in experiment [14]. For the same compound, the MIC in [16] was 3.12 µg/mL (≈ 6.6 µM); in [17], 6.25 µg/mL (≈ 13.2 µM); in experiment [18] it was 12.5 µg/mL (≈ 26.4 µM); in [20], 12.5 µg/mL (≈ 26.4 µM).

Consider `O=C(O)CNC(=O)c1ccc(NC(=S)NNS(=O)(=O)c2ccccc2)cc1`, for which the zone of inhibition at 1000 µg/mL in experiment [1] came to 32 mm; in [3] it was 24 mm; in experiment [6], 30 mm; in experiment [7] it was 23 mm; in experiment [8], 25 mm; in [11], 31 mm. Further, the zone of inhibition at 1000 µg/mL in experiment [12] came out at 20 mm; in experiment [13], 20 mm; in experiment [15] it was 29 mm; in [19] it was 32 mm. For the same compound, the Ratio in experiment [21] and in experiment [22] was 2 each time. In addition, the MIC is 3.12 µg/mL (≈ 7.64 µM) in experiment [2]; 12.5 µg/mL (≈ 30.6 µM) in [4]; 3.12 µg/mL (≈ 7.64 µM) in [5]; 12.5 µg/mL (≈ 30.6 µM) in [9]; 6.25 µg/mL (≈ 15.3 µM) in experiment [10]; 6.25 µg/mL (≈ 15.3 µM) in experiment [14]. For the same compound, the MIC was determined as 3.12 µg/mL (≈ 7.64 µM) in experiment [16], 12.5 µg/mL (≈ 30.6 µM) in [17], 12.5 µg/mL (≈ 30.6 µM) in experiment [18] and 12.5 µg/mL (≈ 30.6 µM) in experiment [20].
